Consider four compounds from publication PMC4177392, “Modulation of Cytochrome P450 Metabolism and Transport across Intestinal Epithelial Barrier by Ginger Biophenolics” (PLoS ONE, 2014).

Data set [1] deals with T1, CYP1A2 (Homo sapiens, UniProt P05177).
T1 construct: […]; tissue XenoTechLLC H0610
T1 sequence (P05177 1-516): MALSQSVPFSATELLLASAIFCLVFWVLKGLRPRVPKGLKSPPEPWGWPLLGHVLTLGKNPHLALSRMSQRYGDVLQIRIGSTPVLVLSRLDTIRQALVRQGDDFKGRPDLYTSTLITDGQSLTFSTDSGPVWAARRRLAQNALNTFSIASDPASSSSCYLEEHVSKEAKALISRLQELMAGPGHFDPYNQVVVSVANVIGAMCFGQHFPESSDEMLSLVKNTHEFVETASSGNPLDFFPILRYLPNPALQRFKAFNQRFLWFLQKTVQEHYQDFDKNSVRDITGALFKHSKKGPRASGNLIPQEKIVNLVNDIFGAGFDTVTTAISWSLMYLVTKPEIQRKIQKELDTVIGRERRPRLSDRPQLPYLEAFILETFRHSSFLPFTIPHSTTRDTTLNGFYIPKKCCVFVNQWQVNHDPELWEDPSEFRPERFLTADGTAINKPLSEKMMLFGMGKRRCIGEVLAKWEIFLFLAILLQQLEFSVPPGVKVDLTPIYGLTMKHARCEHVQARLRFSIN
Kind of data set: CYP1A2 inhibition in human liver microsomes (substrate phenacetin). The format is in vitro ADME.
Description: (§4) The highest concentration of GE used in the assay was 500 µg/mL equivalent. Stock solution for each CYP specific probe substrate was prepared in such a way that the final concentration is below the reported Km value.
(§5) A microsome-buffer-substrate mixture (MBS mix) was prepared for each isozyme by pre-mixing appropriate volumes of sodium phosphate buffer (pH 7.4, 50 mM), microsomes and substrate (Table S2 in File S1). 179 µL of MBS mix was transferred to 96-well reaction plate to which 1 µL of inhibitor stock solution was added to achieve the final target inhibitor concentration. The reaction plate was pre-incubated for 10 min at 37°C followed by reaction initiation by addition of 20 µL of 10 mM NADPH solution. The reaction plate was then incubated at 37°C for a predetermined time period following which it was quenched with 200 µL ACN for all CYPs and 200 µL 1% formic acid in water∶ACN (70∶30) for CYP1A2. In all cases, the final incubations after addition of substrate and inhibitor contained 0.1% DMSO (v/v), and the total organic solvent (DMSO and ACN) content was less than or equal to 1% (v/v). […] The incubations were performed in singlet for individual gingerols and in duplicate for GE along with respective positive controls.

For data set [2], the target named is T2, CYP2A6 (Homo sapiens, UniProt P11509).
T2 sequence (P11509 1-494): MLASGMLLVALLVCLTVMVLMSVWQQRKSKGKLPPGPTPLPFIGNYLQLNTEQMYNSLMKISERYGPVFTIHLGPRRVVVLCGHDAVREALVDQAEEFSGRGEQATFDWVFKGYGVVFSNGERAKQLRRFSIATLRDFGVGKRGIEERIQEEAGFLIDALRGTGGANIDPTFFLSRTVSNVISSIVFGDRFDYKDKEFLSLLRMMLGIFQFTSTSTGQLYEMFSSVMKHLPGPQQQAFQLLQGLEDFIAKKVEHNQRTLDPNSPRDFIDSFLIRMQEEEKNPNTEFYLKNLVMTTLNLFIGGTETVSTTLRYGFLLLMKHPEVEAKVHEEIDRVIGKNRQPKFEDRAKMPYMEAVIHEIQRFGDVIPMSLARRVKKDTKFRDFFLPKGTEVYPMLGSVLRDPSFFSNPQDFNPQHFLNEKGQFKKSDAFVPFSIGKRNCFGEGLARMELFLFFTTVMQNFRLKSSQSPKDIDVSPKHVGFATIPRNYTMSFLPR
Kind of data set: CYP2A6 inhibition in human liver microsomes (substrate coumarin). The format is in vitro ADME.
Description: as §4, §5

Data set [3] deals with CYP2C9 (Homo sapiens, UniProt P11712). Kind of data set: CYP2C9 inhibition in human liver microsomes (substrate diclofenac). As to the method: (§1) Stock solution for each CYP specific probe substrate was prepared in such a way that the final concentration is below the reported Km value.
(§2) A microsome-buffer-substrate mixture (MBS mix) was prepared for each isozyme by pre-mixing appropriate volumes of sodium phosphate buffer (pH 7.4, 50 mM), microsomes and substrate (Table S2 in File S1). 179 µL of MBS mix was transferred to 96-well reaction plate to which 1 µL of inhibitor stock solution was added to achieve the final target inhibitor concentration. The reaction plate was pre-incubated for 10 min at 37°C followed by reaction initiation by addition of 20 µL of 10 mM NADPH solution. The reaction plate was then incubated at 37°C for a predetermined time period following which it was quenched with 200 µL ACN for all CYPs and 200 µL 1% formic acid in water∶ACN (70∶30) for CYP1A2. In all cases, the final incubations after addition of substrate and inhibitor contained 0.1% DMSO (v/v), and the total organic solvent (DMSO and ACN) content was less than or equal to 1% (v/v). The details of final substrate concentration, incubation time, microsomal protein concentration in the reaction mixtures and the metabolites monitored for each isozyme tested are presented in Table S3 in File S1.
All samples were processed using protein precipitation method and analyzed by employing positive (for all CYPs) and negative (for CYP2A6, 2C19 and 2E1) ionization mode in liquid chromatography tandem mass spectrometry (API4000, Applied Biosystems, USA). The peak area ratio of analyte to IS was used for calculations. An isocratic method comprising 5 mM ammonium formate and ACN (40∶60) with 0.05% formic acid was used for elution. For CYP2C19, a mobile phase consisting of 5 mM ammonium formate and ACN (30∶70) was used. The analytes and internal standards were retained on BDS Hypersil Phenyl (150×4.6 mm, 5 µ, Thermo, USA) column. A flow rate of 0.5 mL/min (CYP1A2), 0.6 mL/min (CYP2C19, CYP2E1), 0.7 mL/min (CYP2C9), 0.8 mL/min (CYP2A6, CYP3A), 1.0 mL/min (CYP2B6, CYP2C8, CYP2D6) was maintained using Shimadzu Prominence solvent delivery system (LC-20AD). The mobile phase was degassed using degasser (DGU-20A3), samples were loaded into autosampler (SIL-HTc) and the column temperature was maintained at 40°C by column oven (CTO-20A). Injection volumes for the samples were as follows: 5 µL (CYP1A2, CYP2D6, and CYP3A), 10 µL (CYP2B6, CYP2C8, and CYP2E1) and 20 µL (CYP2A6, CYP2C9, and CYP2C19). Data was collected and processed using Sciex Analyst 1.4.2. […]
(§3) The data was analysed using 4PL (parameter logistic model), 3PLFB (bottom fixed), 3PLFT (top fixed), 2PL (top and bottom fixed), and the relative IC50 was with lowest standard error was further manipulation. Absolute IC50 was calculated from this relative IC50 by using the equation below: [drawing 3]

The target of data set [4] is CYP2C19 (Homo sapiens, UniProt P33261). Briefly: CYP2C19 inhibition in human liver microsomes (substrate (S)-mephenytoin). The format is in vitro ADME.
Description: as §4
(§6) A microsome-buffer-substrate mixture (MBS mix) was prepared for each isozyme by pre-mixing appropriate volumes of sodium phosphate buffer (pH 7.4, 50 mM), microsomes and substrate (Table S2 in File S1). 179 µL of MBS mix was transferred to 96-well reaction plate to which 1 µL of inhibitor stock solution was added to achieve the final target inhibitor concentration. The reaction plate was pre-incubated for 10 min at 37°C followed by reaction initiation by addition of 20 µL of 10 mM NADPH solution. The reaction plate was then incubated at 37°C for a predetermined time period following which it was quenched with 200 µL ACN for all CYPs and 200 µL 1% formic acid in water∶ACN (70∶30) for CYP1A2. In all cases, the final incubations after addition of substrate and inhibitor contained 0.1% DMSO (v/v), and the total organic solvent (DMSO and ACN) content was less than or equal to 1% (v/v). The details of final substrate concentration, incubation time, microsomal protein concentration in the reaction mixtures and the metabolites monitored for each isozyme tested are presented in Table S3 in File S1. The incubations were performed in singlet for individual gingerols and in duplicate for GE along with respective positive controls.
(§7) All samples were processed using protein precipitation method and analyzed by employing positive (for all CYPs) and negative (for CYP2A6, 2C19 and 2E1) ionization mode in liquid chromatography tandem mass spectrometry (API4000, Applied Biosystems, USA). The peak area ratio of analyte to IS was used for calculations. An isocratic method comprising 5 mM ammonium formate and ACN (40∶60) with 0.05% formic acid was used for elution. For CYP2C19, a mobile phase consisting of 5 mM ammonium formate and ACN (30∶70) was used. The analytes and internal standards were retained on BDS Hypersil Phenyl (150×4.6 mm, 5 µ, Thermo, USA) column. A flow rate of 0.5 mL/min (CYP1A2), 0.6 mL/min (CYP2C19, CYP2E1), 0.7 mL/min (CYP2C9), 0.8 mL/min (CYP2A6, CYP3A), 1.0 mL/min (CYP2B6, CYP2C8, CYP2D6) was maintained using Shimadzu Prominence solvent delivery system (LC-20AD). The mobile phase was degassed using degasser (DGU-20A3), samples were loaded into autosampler (SIL-HTc) and the column temperature was maintained at 40°C by column oven (CTO-20A). […]
Data set [5] concerns the target CYP2D6 (Homo sapiens, UniProt P10635). Kind of data set: CYP2D6 inhibition in human liver microsomes (substrate dextromethorphan). Type of data set: in vitro ADME.
Description: as §4, §6, §7
In data set [6] the target is CYP2E1 (Homo sapiens, UniProt P05181). Kind of data set: CYP2E1 inhibition in human liver microsomes (substrate chlorzoxazone). On the procedure: as §1, §2
All samples were processed using protein precipitation method and analyzed by employing positive (for all CYPs) and negative (for CYP2A6, 2C19 and 2E1) ionization mode in liquid chromatography tandem mass spectrometry (API4000, Applied Biosystems, USA). The peak area ratio of analyte to IS was used for calculations. An isocratic method comprising 5 mM ammonium formate and ACN (40∶60) with 0.05% formic acid was used for elution. For CYP2C19, a mobile phase consisting of 5 mM ammonium formate and ACN (30∶70) was used. The analytes and internal standards were retained on BDS Hypersil Phenyl (150×4.6 mm, 5 µ, Thermo, USA) column. A flow rate of 0.5 mL/min (CYP1A2), 0.6 mL/min (CYP2C19, CYP2E1), 0.7 mL/min (CYP2C9), 0.8 mL/min (CYP2A6, CYP3A), 1.0 mL/min (CYP2B6, CYP2C8, CYP2D6) was maintained using Shimadzu Prominence solvent delivery system (LC-20AD). The mobile phase was degassed using degasser (DGU-20A3), samples were loaded into autosampler (SIL-HTc) and the column temperature was maintained at 40°C by column oven (CTO-20A). Injection volumes for the samples were as follows: 5 µL (CYP1A2, CYP2D6, and CYP3A), 10 µL (CYP2B6, CYP2C8, and CYP2E1) and 20 µL (CYP2A6, CYP2C9, and CYP2C19). Data was collected and processed using Sciex Analyst 1.4.2. All the structures of inhibitors, substrates, metabolites and internal standards for each CYP enzyme are represented in Table S6 in File S1.
The IC50 value was estimated from the percentage reduction in CYP activity at eleven inhibitor concentrations with respect to control.
as §3

Data set [7] deals with T3, CYP3A4 (Homo sapiens, UniProt P08684). Kind of data set: CYP3A4 inhibition in human liver microsomes (substrate midazolam). The format is in vitro ADME. Conditions: for IC50 CYP3A4 (midazolam): human liver microsomes, substrate midazolam, gingerols and GE.
Description: as §4, §6, §7
Data set [8] concerns the target T3, CYP3A4. Briefly: CYP3A4 inhibition in human liver microsomes (substrate testosterone). Type of data set: in vitro ADME.
Description: as §4, §5
For data set [9] the following is noted: cited from earlier work.
The test system of data set [10] is Caco-2 monolayer. Kind of data set: Caco-2 permeability assay. The note with it: 10 µM; for Intracellular (cell) accumulation: direction not given; for Papp: n = 3, mean ± SD.
Where [11] appears, read: human liver microsomes, substrate phenacetin, gingerols and GE.
The mark [12] stands for this setting: human liver microsomes, substrate coumarin, gingerols and GE.
Where [13] appears, read: human liver microsomes, substrate diclofenac, gingerols and GE.
[14] abbreviates: human liver microsomes, substrate (S)-mephenytoin, gingerols and GE.
Setting [15] is: human liver microsomes, substrate dextromethorphan, gingerols and GE.
Setting [16] is: human liver microsomes, substrate chlorzoxazone, gingerols and GE.
Where [17] appears, read: human liver microsomes, substrate testosterone, gingerols and GE.
[18] abbreviates: humans, oral 2 g GE, as glucuronide and sulfate conjugates.

Converted amounts (≈) assume the structure as drawn. Read-outs that look alike come from different tables or passages of the source.

T3 sequence (P08684 2-503): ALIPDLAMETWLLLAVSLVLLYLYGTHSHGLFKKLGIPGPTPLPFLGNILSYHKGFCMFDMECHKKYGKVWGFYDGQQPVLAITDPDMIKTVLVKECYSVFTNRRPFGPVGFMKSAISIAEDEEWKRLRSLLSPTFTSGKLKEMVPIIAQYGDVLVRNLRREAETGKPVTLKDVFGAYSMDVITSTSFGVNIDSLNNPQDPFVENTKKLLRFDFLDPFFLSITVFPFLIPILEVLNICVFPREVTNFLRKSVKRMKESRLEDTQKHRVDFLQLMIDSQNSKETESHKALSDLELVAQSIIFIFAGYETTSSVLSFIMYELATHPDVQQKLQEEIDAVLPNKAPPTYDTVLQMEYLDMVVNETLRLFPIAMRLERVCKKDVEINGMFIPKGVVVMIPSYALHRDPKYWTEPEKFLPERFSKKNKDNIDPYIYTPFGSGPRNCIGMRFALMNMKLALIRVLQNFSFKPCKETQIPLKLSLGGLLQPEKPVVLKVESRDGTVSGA
CYP2C9, sequence (P11712 whole entry): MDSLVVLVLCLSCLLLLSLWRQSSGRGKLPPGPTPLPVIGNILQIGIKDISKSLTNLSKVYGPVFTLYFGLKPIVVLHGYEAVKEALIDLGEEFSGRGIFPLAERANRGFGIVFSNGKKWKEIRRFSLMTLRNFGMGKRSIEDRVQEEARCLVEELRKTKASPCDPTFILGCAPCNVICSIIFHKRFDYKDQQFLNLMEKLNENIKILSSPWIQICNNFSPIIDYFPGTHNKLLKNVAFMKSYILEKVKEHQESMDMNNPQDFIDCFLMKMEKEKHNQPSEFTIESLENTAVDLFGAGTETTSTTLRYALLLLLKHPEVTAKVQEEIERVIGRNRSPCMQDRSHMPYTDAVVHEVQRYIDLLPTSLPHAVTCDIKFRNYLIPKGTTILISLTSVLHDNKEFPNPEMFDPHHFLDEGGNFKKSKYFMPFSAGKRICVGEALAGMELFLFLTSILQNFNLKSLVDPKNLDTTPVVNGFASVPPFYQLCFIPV
CYP2E1, sequence (P05181 whole entry): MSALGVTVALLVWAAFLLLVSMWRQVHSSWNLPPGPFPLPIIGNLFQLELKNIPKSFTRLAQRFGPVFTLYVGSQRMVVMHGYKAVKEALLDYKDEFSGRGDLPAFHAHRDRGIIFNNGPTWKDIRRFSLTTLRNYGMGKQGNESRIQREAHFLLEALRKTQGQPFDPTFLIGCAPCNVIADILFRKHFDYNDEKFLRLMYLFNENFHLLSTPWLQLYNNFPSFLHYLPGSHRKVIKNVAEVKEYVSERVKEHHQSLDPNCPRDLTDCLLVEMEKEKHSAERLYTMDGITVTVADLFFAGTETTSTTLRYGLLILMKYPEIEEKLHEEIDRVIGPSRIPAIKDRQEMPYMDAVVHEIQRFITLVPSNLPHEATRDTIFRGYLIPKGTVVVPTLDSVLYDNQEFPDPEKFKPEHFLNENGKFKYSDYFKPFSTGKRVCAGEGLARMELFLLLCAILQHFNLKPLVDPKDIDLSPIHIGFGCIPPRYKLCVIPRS
CYP2D6, sequence (P10635 whole entry): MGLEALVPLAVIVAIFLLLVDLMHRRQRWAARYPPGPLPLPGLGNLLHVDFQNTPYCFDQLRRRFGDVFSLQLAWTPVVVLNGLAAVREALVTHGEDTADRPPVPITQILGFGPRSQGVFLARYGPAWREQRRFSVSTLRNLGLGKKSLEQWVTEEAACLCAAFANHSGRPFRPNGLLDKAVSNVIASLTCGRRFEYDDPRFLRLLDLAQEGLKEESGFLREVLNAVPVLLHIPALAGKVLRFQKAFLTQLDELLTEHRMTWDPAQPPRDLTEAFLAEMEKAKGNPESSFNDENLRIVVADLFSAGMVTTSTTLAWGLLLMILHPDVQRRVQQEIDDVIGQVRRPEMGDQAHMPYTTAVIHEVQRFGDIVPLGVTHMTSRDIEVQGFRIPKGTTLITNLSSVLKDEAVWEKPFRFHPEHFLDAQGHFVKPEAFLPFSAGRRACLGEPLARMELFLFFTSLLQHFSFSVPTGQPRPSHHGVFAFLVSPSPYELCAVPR
CYP2C19, sequence (P33261 whole entry): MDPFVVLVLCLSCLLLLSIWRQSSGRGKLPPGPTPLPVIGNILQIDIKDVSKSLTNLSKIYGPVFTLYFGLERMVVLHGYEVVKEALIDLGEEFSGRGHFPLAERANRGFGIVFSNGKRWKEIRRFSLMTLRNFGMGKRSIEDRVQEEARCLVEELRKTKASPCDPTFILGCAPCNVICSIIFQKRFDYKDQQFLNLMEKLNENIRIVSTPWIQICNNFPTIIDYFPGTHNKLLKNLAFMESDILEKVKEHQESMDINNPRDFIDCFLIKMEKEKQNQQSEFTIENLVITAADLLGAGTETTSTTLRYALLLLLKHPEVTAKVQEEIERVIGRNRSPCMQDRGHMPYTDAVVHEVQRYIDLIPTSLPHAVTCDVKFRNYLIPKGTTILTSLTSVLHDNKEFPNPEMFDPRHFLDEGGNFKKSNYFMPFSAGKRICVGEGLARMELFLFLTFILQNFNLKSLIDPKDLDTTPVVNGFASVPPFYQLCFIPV

For the compound `CCCCC[C@H](O)CC(=O)CCc1ccc(O)c(OC)c1` [6G, 6-gingerol], the IC50 in [1] was 19 µM; in data set [2], above 98.5 µM; in data set [3], 27.9 µM; in [4] it was 10.9 µM; in [5] (IC50 CYP2D6, human liver microsomes, substrate dextromethorphan, gingerols and GE) it was above 98.5 µM; in [6], above 98.5 µM. In addition, the results for the IC50 in data set [7] and in [8] were above 98.5 µM and 37.4 µM, respectively. Besides, the “Cmax / circulating concentration in humans” value in data set [9] (human, in vivo, po) is 850 ± 430 ng/mL. The “Intracellular (cell) accumulation” value in [10] was below 5%. The Intracellular accumulation in data set [10] (A→B) came to 2%; in data set [10] (B→A), 5%.

With `CCCCC/C=C/C(=O)CCc1ccc(O)c(OC)c1` [6S, 6-shogaol], the “IC50 CYP1A2” value in data set [1] (setting [11]) was 0.7 µg/mL (≈ 2.53 µM). Further, the “IC50 CYP2A6” value in data set [2] (setting [12]) was 23 µg/mL (≈ 83.2 µM). Further, the “IC50 CYP2C9” value in data set [3] (setting [13]) is 0.9 µg/mL (≈ 3.26 µM). Also, in [4] (setting [14]), the “IC50 CYP2C19” value is 1.1 µg/mL (≈ 3.98 µM). The “IC50 CYP2D6” value in data set [5] (setting [15]) was 24 µg/mL (≈ 86.8 µM). Also, in [6] (setting [16]), the “IC50 CYP2E1” value turned out to be 21 µg/mL (≈ 76 µM). The “IC50 CYP3A4 (midazolam)” value in data set [7] is 18 µg/mL (≈ 65.1 µM). The “IC50 CYP3A4 (testosterone)” value in data set [8] (setting [17]) worked out at 2.3 µg/mL (≈ 8.32 µM). Further, the “Cmax / circulating concentration in humans” value in data set [9] (setting [18]) was 150 ± 120 ng/mL. Besides, the “Intracellular (cell) accumulation” value in data set [10] is listed as “almost no accumulation”. Also, the Intracellular accumulation in data set [10] (A→B) is on record as 0%; in [10] (B→A) it was 1%. For the same compound, the apparent permeability (Papp) in data set [10] (A→B) worked out at 0.071 ± 0.014 ×10⁻⁶ cm/s; in [10] (B→A), 0.4 ± 0.2 ×10⁻⁶ cm/s.

Take `CCCCCCC[C@H](O)CC(=O)CCc1ccc(O)c(OC)c1` [8G, 8-gingerol]: in data set [1] (setting [11]), the “IC50 CYP1A2” value was 8.8 µg/mL (≈ 27.3 µM). Further, the “IC50 CYP2A6” value in data set [2] (setting [12]) is 19 µg/mL (≈ 58.9 µM). Also, the “IC50 CYP2C9” value in [3] (setting [13]) stood at 2.8 µg/mL (≈ 8.68 µM). The “IC50 CYP2C19” value in [4] (setting [14]) was determined as 2.6 µg/mL (≈ 8.06 µM). Moreover, the “IC50 CYP2D6” value in data set [5] (setting [15]) is 24 µg/mL (≈ 74.4 µM). For the same compound, the “IC50 CYP2E1” value in data set [6] (setting [16]) is 30 µg/mL (≈ 93 µM). The “IC50 CYP3A4 (midazolam)” value in data set [7] is above 32 µg/mL. The “IC50 CYP3A4 (testosterone)” value in data set [8] (setting [17]) stood at 2.6 µg/mL (≈ 8.06 µM). In [9] (setting [18]), the “Cmax / circulating concentration in humans” value is 230 ± 160 ng/mL. Moreover, in data set [10], the “Efflux Ratio” value is reported as 1.3 and the “Intracellular (cell) accumulation” value was below 1%. In addition, in [10] (A→B), the Intracellular accumulation is given as 14% and the Papp was found to be 5.3 ± 0.8 ×10⁻⁶ cm/s. Besides, in [10] (B→A), the Intracellular accumulation is 12% and the Papp worked out at 6.9 ± 0.6 ×10⁻⁶ cm/s.

With `CCCCCCCCC[C@H](O)CC(=O)CCc1ccc(O)c(OC)c1` [10G, 10-gingerol], in data set [1] (microsomes), the “IC50 CYP1A2” value is above 35 µg/mL. The “IC50 CYP2A6” value in [2] (microsomes) was found to be 34 µg/mL (≈ 97 µM). Moreover, the “IC50 CYP2C9” value in [3] (microsomes) was determined as 2.6 µg/mL (≈ 7.42 µM). Further, the “IC50 CYP2C19” value in data set [4] (microsomes) worked out at 2.3 µg/mL (≈ 6.56 µM). For the same compound, in [5] (microsomes), the “IC50 CYP2D6” value amounted to 19 µg/mL (≈ 54.2 µM). The “IC50 CYP2E1” value in [6] (microsomes) is above 35 µg/mL. For the same compound, in data set [7], the “IC50 CYP3A4 (midazolam)” value is above 35 µg/mL. Besides, the “IC50 CYP3A4 (testosterone)” value in data set [8] (microsomes) came out at 2.5 µg/mL (≈ 7.13 µM). Moreover, the “Cmax / circulating concentration in humans” value in [9] (setting [18]) was 530 ± 400 ng/mL. Also, in data set [10], the “Efflux Ratio” value came out at 1.8 and the “Intracellular (cell) accumulation” value is recorded as 15%. Further, in data set [10] (A→B), the Intracellular accumulation was found to be 15% and the apparent permeability coefficient (Papp) was determined as 0.9 ± 0.7 ×10⁻⁶ cm/s. In [10] (B→A), this compound showed an Intracellular accumulation of 10% and a Papp of 1.7 ± 0.6 ×10⁻⁶ cm/s.
